Measurements taken from patent publication US20060073589A1, “Rapid generation of activated mononuclear antigen presenting cells from monocytes” (priority 2002, published 2006).
*1 amine or outer side, *2 acyl side, *3 side chain or, on linkers, in order; H or OH if unused. Where a SMILES comes first, the peptide text is derived from it. Bridges are numbered along the chain shown (N, C = ends). Roman numbers before positions name the chains, in order. [ ]: non-standard residue; d: D form. Actinocin(9to1) = Cc1c2oc3c(C)ccc(C(=O)[*:1])c3nc-2c(C(=O)[*:2])c(N)c1=O; NMeV = CN[C@H](C(=O)O)C(C)C; Sar = CNCC(=O)O

tested on: CD83 expression on the cell membrane of monocytes; assay: CD83 surface expression on monocytes cultured with metabolic inhibitors; assay type: cell-based, human; conditions: 4 h monocyte culture, inhibitor added at beginning; actinomycin D 100 ng/ml, cyclohexamide 100 μM, brefeldin A 5 μg/ml
Description: The dotted line indicates the FACS profile of cells stained with isotype control mAb. The data are representative of three independent experiments.
Cells were washed and resuspended in PBS containing 1% human serum and incubated with fluorochrome-conjugated mAbs for 30 min at 4° C. The following mAbs were used for immunofluorescent staining: anti-CD14, CD80, CD4, CD25, CD54, HLA-DR (Becton Dickinson, San Jose Calif.), CD40, CD86, CD83, CD1a, CD62L, HLA A-B-C, ManR, CD58, LFA-1, CD32 (Pharmingen, San Diego, Calif.), CD2 (clone SFCI3Pt2H9; Beckman Coulter, Fullerton, Calif.), CD33 (Immunotech). Samples were collected and analysed by using a FACSort (Becton Dickinson) and data analysis was performed by CellQuest software (Becton Dickinson). Cells were electronically gated according to light scatter properties, in order to exclude cell debris and contaminating lymphocytes.
The CD83 surface expression in cells cultured in the presence of various metabolic inhibitors added at the beginning of the culture was examined.

| SMILES | inhibition of up-regulation of CD83 expression on the cell membrane |
| --- | --- |
| C[C@H]1CCC/C=C/[C@@H]2C[C@H](O)C[C@H]2[C@H](O)/C=C/C(=O)O1 [brefeldin A] | completely blocked |
| C[C@@H]1C[C@@H]([C@H](O)CC2CC(=O)NC(=O)C2)C(=O)[C@@H](C)C1 [cyclohexamide] | completely blocked |
| Cc1c2oc3c(C)ccc(C(=O)N[C@@H]4C(=O)N[C@H](C(C)C)C(=O)N5CCC[C@H]5C(=O)N(C)CC(=O)N(C)[C@@H](C(C)C)C(=O)O[C@@H]4C)c3nc-2c(C(=O)N[C@@H]2C(=O)N[C@H](C(C)C)C(=O)N3CCC[C@H]3C(=O)N(C)CC(=O)N(C)[C@@H](C(C)C)C(=O)O[C@@H]2C)c(N)c1=O [actinomycin D] (I: T[dV]P[Sar][NMeV] / II: T[dV]P[Sar][NMeV]; ester I:1-I:C, II:1-II:C; linker I:N-II:N via Actinocin(9to1)) | not significantly inhibited |
